Measurements as given in publication PMC9229949 (Pharmaceutics, 2022).
Where two headings read alike, the source gives them in different places.

Columns and labels:
[1] = test system: P. falciparum W2 (CQ-resistant) asexual blood stages; test: In vitro activity against asexual blood stages of P. falciparum, CQ-resistant strain W2 (HRP2 ELISA); assay type: cell-based; details: Plasmodium falciparum, W2
Method: (§1) The plates were incubated for 72 h at 37 °C in controlled atmosphere. After frozen and thawing the plates, hemolyzed cultures were homogenized by vortexing the plates. The antiparasitic activity was determined using the HRP2 ELISA-based assay Malaria Ag Celisa kit (ref KM2159, Cellabs PTY LDT, Brookvale, Australia). […] IC50s are expressed as means of three to five experiments.

[2] = target: T1, human glutathione reductase (hGR) (Homo sapiens, UniProt P00390); test: Inhibition of enzymatic activity of recombinant human glutathione reductase; assay type: biochemical; details: recombinant enzyme, 15 min preincubation; mean of one experiment; read-out: IC50, Human GR
T1 construct: made in house
T1 sequence (P00390 44-522): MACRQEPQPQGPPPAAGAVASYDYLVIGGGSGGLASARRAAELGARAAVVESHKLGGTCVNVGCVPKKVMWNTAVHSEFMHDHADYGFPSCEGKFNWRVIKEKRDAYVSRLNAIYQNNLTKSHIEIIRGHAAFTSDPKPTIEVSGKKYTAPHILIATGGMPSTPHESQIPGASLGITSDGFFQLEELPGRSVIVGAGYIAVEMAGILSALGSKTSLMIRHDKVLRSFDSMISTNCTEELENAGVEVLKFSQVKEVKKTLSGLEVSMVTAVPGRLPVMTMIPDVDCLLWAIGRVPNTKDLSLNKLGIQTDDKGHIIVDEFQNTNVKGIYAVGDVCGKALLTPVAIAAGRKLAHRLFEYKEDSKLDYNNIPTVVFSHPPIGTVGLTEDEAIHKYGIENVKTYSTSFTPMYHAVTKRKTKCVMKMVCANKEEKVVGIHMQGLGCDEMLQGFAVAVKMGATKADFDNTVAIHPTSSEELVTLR
Method: (§2) The codon-optimized sequence for PfTrxR [27, 28] was synthesized and subcloned into pET-15b (Genscript) and expressed and purified as for human glutathione reductase (hGR). Recombinant Schistosoma mansoni (S. mansoni) thioredoxin glutathione reductase (SmTGR), human TrxR (hTrxR), and hGR proteins were expressed and purified as described. TrxR and TGR enzyme inhibition assays were performed in triplicate at 25 °C in 0.1 M potassium phosphate (pH 7.4), 10 mM EDTA, 100 µM NADPH and 0.01% Tween-20. SmTGR (4 nM), hTrxR (4 nM), and PfTrxR (50 nM) were preincubated with the compounds for 15 min. The reaction was started with addition of an equal volume of 5,5′-dithiobis(2-nitrobenzoic acid) (6 mM) and NADPH (100 µM). The increase in A412 during the first 3 min was recorded. […]. The reactions were performed in triplicate. The IC50s were calculated in Prism version 5.01.

[3] = target: T2, S. mansoni thioredoxin-glutathione reductase (SmTGR) (Schistosoma mansoni, UniProt Q962Y6); test: Inhibition of enzymatic activity of recombinant S. mansoni thioredoxin glutathione reductase; assay type: biochemical; details: 15 min preincubation, mean of one experiment, read-out: IC50 for TrxRs, S. mansoni (Sec)
T2 construct: made in house
T2 sequence (Q962Y6 1-598): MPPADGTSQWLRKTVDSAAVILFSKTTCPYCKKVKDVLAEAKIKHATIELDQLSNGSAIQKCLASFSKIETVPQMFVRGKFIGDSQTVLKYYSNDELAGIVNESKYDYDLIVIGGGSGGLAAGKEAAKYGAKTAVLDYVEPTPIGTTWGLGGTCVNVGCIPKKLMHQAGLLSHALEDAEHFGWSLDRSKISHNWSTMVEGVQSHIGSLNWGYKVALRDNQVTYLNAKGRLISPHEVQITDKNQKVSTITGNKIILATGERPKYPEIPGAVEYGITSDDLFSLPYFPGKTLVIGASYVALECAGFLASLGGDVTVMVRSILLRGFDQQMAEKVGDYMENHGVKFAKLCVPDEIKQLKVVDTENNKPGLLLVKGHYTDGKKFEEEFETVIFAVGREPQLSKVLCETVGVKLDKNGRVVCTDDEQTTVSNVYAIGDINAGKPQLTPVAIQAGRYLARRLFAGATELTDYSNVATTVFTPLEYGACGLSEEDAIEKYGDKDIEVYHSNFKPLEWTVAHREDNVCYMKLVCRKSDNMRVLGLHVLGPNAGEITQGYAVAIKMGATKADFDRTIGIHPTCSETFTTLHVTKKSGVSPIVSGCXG
Method: as §2

[4] = test system: 3D7 P. falciparum gametocytes stages I/III; test: P. falciparum young gametocytes (stages I/III), luciferase viability; assay type: cell-based; details: Plasmodium falciparum; 3D7 strain, 72 h; mean ± S.D. of one experiment; read-out: IC50, gametocytes of P. falciparum, Stages I/III
Method: The activity of compounds was assessed against young gametocytes (stages I/III) and against mature gametocytes (stage V). […] A volume of 100 μL of 3D7elo1-pfs16-CBG99 gametocytes of 3D7 P. falciparum at 0.5–1% parasitemia and 2% hematocrit were dispensed. […] Luciferase activity was used to determine gametocytes viability. A volume of 100 µL of culture medium was removed from each well to increase hematocrit; 70 µL of resuspended culture was transferred to a black 96-well plate; 70 µL of D-luciferin (1 mM in citrate buffer 0.1 M, pH 5.5) was added. Luminescence measurements were performed after 10 min with 500 ms integration time. The IC50 was extrapolated from nonlinear regression analysis of the concentration–response curve.

[5] = test system: P. falciparum 3D7 (CQ-susceptible) asexual blood stages; test: In vitro activity against asexual blood stages of P. falciparum, CQ-susceptible strain 3D7 (HRP2 ELISA); assay type: cell-based; details: Plasmodium falciparum, 3D7
Method: as §1

[6] = Interaction with reduced glutathione (GSH) by monochlorobimane fluorescence assay
Method: Ten microliters per well of a solution of 2.0 mM reduced glutathione (Sigma-Aldrich, St. Louis, MO, USA, dissolved in PBS pH 7.2) was distributed in a 96-well microplate containing 170 μL/well of DMSO/PBS (1:1; v/v). Stock solutions of compounds were diluted in DMSO, and 10 μL was added in quadruplicate in the respective wells to a final concentration of 0.015 to 0.5 mM. […] After 1 h incubation at room temperature, fluorescence was recorded (λex = 360 nm, λem = 440 nm). Blank subtraction was performed prior to monochlorobimane addition, and controls included untreated wells (no drug) and no GSH. The results were expressed as a percentage of inhibition of GSH binding to monochlorobimane in comparison to control without compound. At least two independent experiments were performed.

Row | SMILES | IC50 ([1]; 72 h incubation, HRP2 ELISA, mean ± S.E.M. of at least three experiments, AQ hydrochloride hydrate, PQ diphosphate, CQ diphosphate, read-out: P. falciparum, IC50 ± S.E.M., CQ-Resistant W2) | IC50 ([1]; Figure 5 summary, read-out: CQ-resistant P.f.) | IC50 [2] | IC50 [3] | IC50 [4] | IC50 ([5]; 72 h incubation, HRP2 ELISA, mean ± S.E.M. of at least three experiments, AQ hydrochloride hydrate, PQ diphosphate, CQ diphosphate, read-out: P. falciparum, IC50 ± S.E.M., CQ-Susceptible 3D7) | IC50 ([5]; in vitro antiplasmodial activity, read-out: P. falciparum 3D7 (Cell Based Activity), IC50) | interaction with GSH ([6]; 2 h incubation, 10 to 0.3 drug:GSH molar ratio) | binding to GSH at 24 h versus 2 h incubation ([6]; 24 h versus 2 h incubation)
1 | CCN(CC)Cc1cc(Nc2ccnc3cc(Cl)ccc23)ccc1O [Amodiaquine (AQ), amodiaquine] | 86.2 ± 9.4 nM | 86 ± 9 nM | > 66700 nM | 42000 nM | 61 ± 20 nM | 18 ± 1.6 nM | 18 ± 2 nM | – | –
2 | [Cl][Au].c1ccc(P(c2ccccc2)c2ccccc2)cc1 [[AuClPPh3]] | – | – | 1.18 nM | 0.5 nM | – | – | – | able to interact with GSH in a drug-concentration manner | remained almost unaltered
